The source of these data is patent US11154071B2, “Sweetener iso-mogroside V” (Glvaudan SA, priority 2007, dated 2021).

Some results are limits rather than exact numbers.

What all share (assay type): in vivo
For assay [1], the system named is sweet sensitive panelists. Briefly: Sweetness enhancement of iso-mogroside V at near threshold concentration in 7% sucrose solution, sensory panel. To be noted: 10 ppm iso-mogroside V in 7% sucrose solution. As to the method:
The sweetness enhancement properties of iso-mogroside V was determined using a sample having a concentration of 10 ppm iso-mogroside V, which is near the sweetness detection threshold, in 7% sucrose solution.
The iso-mogroside V sample was directly compared to samples of 7%, 8% or 9% sucrose, and panelists were instructed to compare the sweetness intensity of the samples.
The comparisons were carried out by a panel of 6 sweet sensitive panelists. All samples were presented to panelists in 15 ml aliquots at ambient temperature. Panelists compared the iso-mogroside V sample to each of the sucrose samples.

Assay [2] relates to sweet sensitive panelists. Briefly: Comparison of the sweetness of mogroside V and iso-mogroside V in water, blind samples, sensory panel. To be noted: panel of 4. The method, then:
The intensity of sweet taste of iso-mogroside V when compared to mogroside V was determined in water using near-sweetness detection threshold concentrations. The direct comparison was carried out by a panel of 4 sweet sensitive panelists. Blind samples (identity unidentifiable by panelists) were randomly presented to panelists in 15 ml aliquots at ambient temperature. Sensory evaluation started with the lower sample concentration (10 ppm).

The test system of assay [3] is sweet sensitive panelists. The experiment in a line: Determination of the sweetness threshold of iso-mogroside V: isointensity to sucrose solutions, paired comparison. The method, then: […] Samples were paired and tasted left to right with rinsing of the mouth (water) in-between. 20 ppm iso-mogroside V was evaluated as described but with 4 sweet sensitive panelists and 0.5, 1.0 and 1.5% sucrose.

Assay [4] can be described thus: Preliminary experiments on flavour enhancing effect on sweeteners.

In the case of `C[C@H](CC[C@@H](O[C@@H]1O[C@H](CO[C@@H]2O[C@H](CO)[C@@H](O)[C@H](O)[C@H]2O)[C@@H](O)[C@H](O)[C@H]1O[C@@H]1O[C@H](CO)[C@@H](O)[C@H](O)[C@H]1O)C(C)(C)O)[C@H]1CC[C@@]2(C)[C@@H]3CC=C4[C@@H](CC[C@H](O[C@@H]5O[C@H](CO)[C@@H](O[C@@H]6O[C@H](CO)[C@@H](O)[C@H](O)[C@H]6O)[C@H](O)[C@H]5O)C4(C)C)[C@]3(C)[C@H](O)C[C@]12C` [iso-mogroside V, 3-[(4-O-β-D-glucopyranosyl-β-D-glucopyranosyl)oxy]-mogrol-24-O-β-D-glucopyranosyl-(1→2)-O-[β-D-glucopyranosyl-(1→6)]-β-D-glucopyranoside], in assay [1], the “panelists who found the sample as sweet or sweeter as 8% sucrose” value is on record as 5 of 6. In addition, the “panelists who found the sample sweeter than 7% but less sweet than 8% sucrose” value in assay [1] is 1 of 6. For the same compound, in assay [1] (after subtracting own sweetness of 0.5% sucrose), the “sweetness enhancement effect (equal to sucrose)” value was at least 0.5 % sucrose. In addition, in assay [1] (compared to 7%, 8% or 9% sucrose, panel of 6), the “sweetness of iso-mogroside V sample (equal to sucrose)” value is given as at least 8 % sucrose. For the same compound, the “Taste of iso-mogroside V samples compared to mogroside V” value in assay [2] (10 ppm in water) and in assay [2] (20 ppm in water) was “sweeter” each time. For the same compound, the “panelists who indicated iso-mogroside V is sweeter than mogroside V” value in assay [2] (10 ppm in water) is recorded as “two”; in assay [2] (20 ppm in water), 4 panelists. Also, the “Taste of iso-mogroside V samples compared to sucrose” value in assay [3] (10 ppm in water vs 0% sucrose (water), 5 panelists) is listed as “sweeter”; in assay [3] (10 ppm in water vs 0.5% sucrose, 5 panelists), “isosweet”; in assay [3] (10 ppm in water vs 1.0% sucrose, 5 panelists), “less sweet”; in assay [3] (20 ppm in water vs 0.5% sucrose, 4 panelists), “sweeter”; in assay [3] (20 ppm in water vs 1% sucrose, 4 panelists) it was “isosweet”; in assay [3] (20 ppm in water vs 1.5% sucrose, 4 panelists) it was “less sweet”. Further, in assay [3] (about 0.2 ppm in water as stated), the “equivalent sweetness intensity at the sweetness detection threshold” value is recorded as “about 0.5 % sucrose”. The “sweetness relative to sucrose” value in assay [3] (from 10 ppm isosweet to 0.5% sucrose) was “about 500 times”. For the same compound, the “flavour enhancing effect on sweeteners compared to its known isomer (mogroside V)” value in assay [4] is reported as “particularly high flavour enhancing effect”.
